Data on 6 molecules can be found in patent US7384961B2, “Saturated and unsaturated heteroarylcycloalkylmethyl amines as anti-depressants” (priority 2002, dated 2008).

The test system of data set [1] is mice. Put plainly: Isolation-induced pup vocalization test in mice. Particulars: for ED50: sc, read-out: Change in vocalization frequency versus control, ED50 value. The class given is in vivo. The method, then: d) Investigation of the Anxiolytic Action in the Isolation-Induced Pup Vocalization Test in Mice
The isolation-induced pup vocalization test in mice was used to investigate anxiolytic actions (Fish, E. W., Sekinda, M., Ferrari, P. F., Dirks, A., Miczek, K. A., Psychopharmacology, vol. 149, p. 277-285, (2000)). Litters of 7 to 13 mice were used for the testing. At the age of 7 days the animals were separated from the mother and placed in an incubation cage with an internal temperature of approx. 34° C. For determination of the vocalizations in the ultrasonic range, the animals were placed individually on a temperature-controlled platform (23 cm×23 cm, divided by a grid into fields of 2 cm×2 cm, 19±1° C.) of a soundproofed test chamber for a duration of 30 sec. The ultrasonic vocalizations were recorded with a high-frequency capacitor microphone, filtered, amplified, digitalized and plotted and analysed using commercial software. Only animals with pre-values of at least 6 vocalizations within 30 sec and a body weight of 3.5 to 5.5 g were employed for the testing. After subcutaneous (s.c.) injection of substance or vehicle, the animals were returned to the incubation cage for a duration of 10 min and then placed individually again on the temperature-controlled plate of the test chamber for a duration of 4 min. In addition to the number of vocalizations, crossings of the grid of the plate and body turns of the mice were determined to investigate influences of the substance on locomotor activity and coordination. Changes in the vocalization frequencies, crossings of the grid and body turns were stated relative to the vehicle control. A reduction in the vocalization frequency is described for anxiolytics.

For data set [2], the system named is mice. The data set is described as follows: Forced swimming test (Porsolt test) in mice. Type of data set: in vivo. Particulars: for Change in immobility phase versus control: 2.15 mg/kg i.p., mice. The protocol:
c) Investigation of the Antidepressant Action in the Forced Swimming Test (Porsolt Test) in Mice
The investigations to determine the antidepressant action of the compounds of the formula I according to the invention were carried out in the forced swimming test (Porsolt test) in mice (Porsolt, R. et al., Arch. Int. Pharmacodyn. vol. 229, p. 327-336, (1977)). Male mice (20-25 g body weight) were placed individually for a period of 6 minutes in a shallow bowl of water from which they were unable to escape and were therefore forced to swim. After some time the animals gave up their swimming attempts and passed into an immobility phase. The duration of the immobility phase in the interval of 2-6 minutes after introduction of the animals was determined. The substance and vehicle groups each comprise 10 animals. Changes in the duration of the immobility phase are stated relative to the vehicle control. Differences versus the vehicle control are tested for significance with the aid of the Student's T test. Antidepressants induce a shortening of the immobility phase.

Data set [3] deals with T1, NA re-uptake (Rattus norvegicus, UniProt Q63380).
T1 construct: synaptosomes are freshly isolated from rat brain areas; from tissue; host or cells: rat brain synaptosomes (P2 fraction), hypothalamus
T1 sequence (Q63380 1-617): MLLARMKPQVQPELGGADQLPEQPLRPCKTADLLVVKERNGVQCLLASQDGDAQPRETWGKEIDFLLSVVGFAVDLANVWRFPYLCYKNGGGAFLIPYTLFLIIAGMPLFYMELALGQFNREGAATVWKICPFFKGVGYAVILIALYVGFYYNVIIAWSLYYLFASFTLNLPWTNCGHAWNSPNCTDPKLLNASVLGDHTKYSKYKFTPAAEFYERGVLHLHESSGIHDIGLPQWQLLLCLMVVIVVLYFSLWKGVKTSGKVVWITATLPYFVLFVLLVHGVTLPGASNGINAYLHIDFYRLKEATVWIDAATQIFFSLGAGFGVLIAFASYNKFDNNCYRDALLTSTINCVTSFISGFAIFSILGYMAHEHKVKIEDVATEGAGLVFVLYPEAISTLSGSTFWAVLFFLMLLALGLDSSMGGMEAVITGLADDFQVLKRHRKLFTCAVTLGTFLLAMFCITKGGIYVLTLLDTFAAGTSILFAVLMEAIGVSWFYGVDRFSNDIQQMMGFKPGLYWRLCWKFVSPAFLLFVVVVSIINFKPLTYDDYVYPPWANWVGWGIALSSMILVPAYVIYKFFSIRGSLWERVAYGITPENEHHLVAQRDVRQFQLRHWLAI
The data set is described as follows: Inhibition of NA re-uptake in rat brain synaptosomes (P2 fraction, hypothalamus). The following applies: 10 μmol/l. Type of data set: biochemical. The text has this: (§1) a) Investigations of the Inhibition of the Re-uptake of 5-HT and NA
(§2) In order to be able to carry out these in vitro studies, synaptosomes are freshly isolated from rat brain areas. […] These vesicular particles are isolated from the hypothalamus for the NA re-uptake and from the medulla +pons region of male rat brains for the 5-HT re-uptake.
(§3) The IC50 values were obtained with the aid of the “Figure P” computer program (version 6.0, Biosoft, Cambridge, England). […] The “Ligand” computer program (version 4, Biosoft, England) was used to obtain KD values.

Data set [4] has as its system mice. The data set is described as follows: Formalin test in mice (analgesic action, chronic pain component). Type of data set: in vivo. The following applies: for ED50: Mus musculus, read-out: Inhibition of the nociceptive behaviour versus control, ED50 value. The protocol: b) Investigations of the Analgesic Actions in the Formalin Test in Mice
The formalin test (Dubuisson, D. and Dennis, S. G., 1977, Pain, 4, 161-174) represents a model of acute and chronic pain. The chronic pain component was evaluated in the investigations described here.
A biphase nociceptive reaction which is recorded by observing three behaviour patterns which can be clearly differentiated from one another is induced in freely mobile test animals by a single formalin injection into the dorsal side of a hind paw.
Formalin is administered subcutaneously into the dorsal side of the right hind paw of each animal in a volume of 20 μl and a concentration of 1%.
The specific changes in behaviour which differ from the normal behaviour (score 0), such as raising (score 1) and shaking the paw (score 2) and biting and licking reactions (score 3), are observed and recorded continuously at component intervals of 3 min for up to 60 min after the administration of formalin. The changes in behaviour are weighted in different ways (score 0-3) and a pain rate (PR) is calculated using the following formula: PR=[(T0×0)+(T1×1)+(T2×2)+(T3×3)]/180.
The group size is 10 animals (n=10).
On the basis of the PR calculations, the action of the substance was determined as the change from a control in percent. The ED50 was determined by means of regression analysis.

Data set [5] has as its target T2, 5-HT re-uptake (Rattus norvegicus, UniProt P31652).
T2 construct: synaptosomes are freshly isolated from rat brain areas; from tissue; host or cells: rat brain synaptosomes (P2 fraction), medulla + pons region, male rats
The data set is described as follows: Inhibition of 5-HT re-uptake in rat brain synaptosomes (P2 fraction, medulla + pons). Type of data set: biochemical. The following applies: 10 μmol/l.
Description: as §1, §2, §3

Marks after values point to notes of the source that are not given here.

T2 sequence (P31652 whole entry): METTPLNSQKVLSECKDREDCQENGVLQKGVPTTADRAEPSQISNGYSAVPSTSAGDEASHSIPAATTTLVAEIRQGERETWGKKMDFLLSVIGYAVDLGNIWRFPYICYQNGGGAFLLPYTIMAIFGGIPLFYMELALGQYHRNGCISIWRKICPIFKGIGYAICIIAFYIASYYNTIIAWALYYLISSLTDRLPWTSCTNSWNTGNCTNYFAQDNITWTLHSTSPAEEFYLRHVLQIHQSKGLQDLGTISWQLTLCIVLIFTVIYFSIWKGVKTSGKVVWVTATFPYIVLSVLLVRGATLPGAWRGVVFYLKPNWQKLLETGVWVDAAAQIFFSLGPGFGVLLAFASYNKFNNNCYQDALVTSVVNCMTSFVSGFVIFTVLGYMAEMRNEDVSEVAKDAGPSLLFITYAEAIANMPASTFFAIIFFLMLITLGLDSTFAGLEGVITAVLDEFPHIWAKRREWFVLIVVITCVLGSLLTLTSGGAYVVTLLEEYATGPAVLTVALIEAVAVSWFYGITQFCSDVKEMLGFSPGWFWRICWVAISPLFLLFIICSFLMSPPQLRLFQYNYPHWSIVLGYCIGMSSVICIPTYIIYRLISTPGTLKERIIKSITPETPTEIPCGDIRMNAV

`COc1ccc(C(CN(C)C)C2(O)CCCCC2)cc1` (stereo not shown) [venlafaxine, reference compound]: the ED50 in data set [1] (Mus musculus) stood at 8.1 mg/kg; in data set [4] (iv) it was 2.6 mg/kg. The “Change in body turns, maximum change” value in data set [1] (dose range 0.3-56 mg/kg s.c.) is given as “+141% (n.s.)”. Moreover, in data set [1] (dose range 0.3-56 mg/kg s.c.), the “Change in grid crossings, maximum change” value was “+92% (n.s.)”. In addition, the “Change in immobility phase versus control” value in data set [2] is given as −66%***. The same molecule gave an inhibition at 10 µM in data set [3] of 92%.

Consider `CN(C)CCCC1(c2ccc(F)cc2)OCc2cc(C#N)ccc21` (stereo not shown) [Citalopram, citalopram], for which, in data set [1] (dose range 0.56-10 mg/kg s.c.), the “Change in body turns, maximum change” value is on record as “+397% (s.)” and the “Change in grid crossings, maximum change” value is listed as “+66% (n.s.)”. Further, the ED50 in data set [1] (mouse pups) is 1.2 mg/kg.

With `CN(C)CC1=C(c2cccnc2)CCCC1.Cl.Cl` [Example 1, Dimethyl-(2-pyridin-3-yl-cyclohex-1-enylmethyl)amine dihydrochloride], the “Change in body turns, maximum change” value in data set [1] (dose range 1.0-17 mg/kg s.c.) is given as “+233% (n.s.)”. The “Change in grid crossings, maximum change” value in data set [1] (dose range 1.0-17 mg/kg s.c.) is listed as “+32% (n.s.)”. In data set [1] (locomotion and coordination), the “Changes in the crossings of the grid and body turns (in words)” value was “no significant changes in the crossings of the grid and body turns”. Also, the “Reduction in the vocalization frequency (in words)” value in data set [1] (pup vocalization test) was “significant reduction in the vocalization frequency”. Also, the ED50 in data set [1] (mouse pups) is 1.7 mg/kg; in data set [4] (iv) it was 1.66 mg/kg. For the same molecule, the “Change in immobility phase versus control” value in data set [2] is listed as −54%***. Also, the “Shortening of the immobility phase (in words)” value in data set [2] (forced swimming test in mice) was “significant shortening of the immobility phase”. In addition, the inhibition at 10 µM in data set [3] amounted to 35%; in data set [5], 83%. For the same molecule, the “Inhibition of the nociceptive behaviour (in words)” value in data set [4] (formalin test in mice) is on record as “dose-dependent inhibition of the nociceptive behaviour”.

For the molecule `CN(C)CC1=C(c2cccnc2)CCCCCC1.Cl` [Example 32, Dimethyl-(2-pyridin-3-yl-cyclooct-1-enylmethyl)-amine hydrochloride], the values for the inhibition at 10 µM in data set [3] and in data set [5] were 55% and 78%, respectively. Moreover, the ED50 in data set [4] (iv, mice, formalin test) turned out to be 2.77 mg/kg.

As to `CN(C)CC1CCCC1c1cccnc1.Cl` (stereo not shown) [Example 31, Dimethyl-(2-pyridin-3-yl-cyclopentylmethyl)-amine hydrochloride], the inhibition at 10 µM in data set [3] was determined as 8%; in data set [5], 70%. The “Inhibition of the nociceptive behaviour versus control; % inhibition” value in data set [4] (10 mg/kg i.v., mice) was 89.7%.

For `CNCC[C@H](Oc1cccc2ccccc12)c1cccs1` [duloxetine, reference compound], the “Change in immobility phase versus control” value in data set [2] is given as −41%**. Also, in data set [4] (ip), the ED50 worked out at 6.69 mg/kg.
